Article PMC11637378, “Optogenetic screening of MCT1 activity implicates a cluster of non-steroidal anti-inflammatory drugs (NSAIDs) as inhibitors of lactate transport” (PLOS ONE, 2024)
Like-named read-outs stand apart in the source and are kept apart here.

Test system: parent strain (SAWy518)

SMILES	Offscreen_18hr	Offscreen_24hr	Offscreen_42hr	also measured
O=C(O)/C=C/C=C/c1ccccc1 [JUAREZIC ACID]	0.6813	0.7831	0.827	–
COc1cc(C)c2c(=O)c(-c3ccccc3)coc2c1 [METHOXYVONE]	0.7685	0.8867	0.9442	–
Cc1cc(C(C)(C)CC(C)(C)C)ccc1OCCOCC[N+](C)(C)Cc1ccccc1.[Cl-] [METHYLBENZETHONIUM CHLORIDE]	0.7745	0.875	0.932	–
CC[N+](CC)(CC)CCOc1ccc(/C=C/c2ccccc2)cc1 [MG 624]	0.5585	0.7684	0.9127	–
O=C(O)[C@]1(Cc2cccc(Nc3nccs3)n2)CC[C@@H](Oc2cccc(Cl)c2F)CC1 [MK-5108 (VX-689)]	0.6785	0.8599	0.9444	–
Cl.O=S(=O)(c1cccc2c(I)cccc12)N1CCCNCC1 [ML-7, reference compound]	–	–	–	Offtarget: NO; Offtarget_sub: 0.3788
O=[N+]([O-])/C=C/c1ccc2c(c1)OCO2 [MNS]	0.2427	0.4675	0.9062	–
COc1c(C)c2c(c(O)c1C/C=C(\C)CCC(=O)OCCN1CCOCC1)C(=O)OC2 [MYCOPHENOLATE MOFETIL]	0.5798	0.792	0.9179	–
COc1c(C)c2c(c(O)c1C/C=C(\C)CCC(=O)O)C(=O)OC2 [MYCOPHENOLIC ACID]	0.6454	0.8395	0.9254	–
CN(C)c1ccc2nc3ccc(=[N+](C)C)cc-3sc2c1 [Methylene Blue trihydrate]	–	–	–	Offscreen_18hr (parent strain growth reading, 18 hr): 0.8664; Offscreen_24hr (parent strain growth reading, 24 hr): 0.9565; Offscreen_42hr (parent strain growth reading, 42 hr): 1.0182
CN(C)c1ccc2nc3ccc(=[N+](C)C)cc-3sc2c1.O.O.O.[Cl-] [Methylene Blue]	0.8664	0.9565	1.0182	–
CCN(CC)C(=O)[C@]1(c2ccccc2)C[C@@H]1CN.Cl [Milnacipran hydrochloride]	0.8463	0.9181	0.9801	–
COc1c(C)c2c(c(O)c1C/C=C(\C)CCC(=O)O)C(=O)OC2 [Mycophenolic (Mycophenolate)]	0.6524	0.8532	0.951	–
O=[N+]([O-])c1ccc(O)c2ncccc12 [NITROXOLINE]	0.0416	0.0414	0.0729	–
CC(Cc1ccc(O)c(O)c1)C(C)Cc1ccc(O)c(O)c1 (stereo not drawn) [Nordihydroguaiaretic acid, reference compound]	0.8169	0.9084	0.9699	OffScreen_percentage: 101.227 percentage; Read_percentage: 101.227 percentage
NCC(=O)Nc1ccc(-n2nc(C(F)(F)F)cc2-c2ccc3c(ccc4ccccc43)c2)cc1 [OSU-03012 (AR-12)]	0.0821	0.1608	0.9195	–

SMILES	Offscreen_18hr	Offscreen_24hr	Offscreen_42hr	also measured
O=C(/C=C/c1ccc(O)c(O)c1)OCCc1ccccc1 [PHENETHYL CAFFEATE (CAPE)]	0.3307	0.5133	0.8223	–
O=C1c2ccccc2C(=O)c2c(O)c(O)cc(O)c21 [PURPURIN]	0.5082	0.6741	0.7778	–
CCCc1c(-c2ccc(O)cc2)nn(-c2ccc(O)cc2)c1-c1ccc(O)cc1 [Propylpyrazole triol]	–	–	–	Read_percentage: 98.9963 percentage
CO[C@H]1C[C@@H]2CC[C@@H](C)[C@@](O)(O2)C(=O)C(=O)N2CCCC[C@H]2C(=O)O[C@H]([C@H](C)C[C@@H]2CC[C@@H](O)[C@H](OC)C2)CC(=O)[C@H](C)/C=C(\C)[C@@H](O)[C@@H](OC)C(=O)[C@H](C)C[C@H](C)/C=C/C=C/C=C/1C [Rapamycin]	0.0498	0.0505	0.0758	–
Nc1ccc(-c2nc3ccc(-c4nc5cc(N)ccc5[nH]4)cc3[nH]2)cc1 [Ro 90-7501]	0.6647	0.8739	0.9612	–
CS(=O)(=O)c1ccc(C2=C(c3ccccc3)C(=O)OC2)cc1 [Rofecoxib, reference compound]	0.8386	0.9205	0.975	OffScreen_percentage: 103.916 percentage; Read_percentage: 103.916
N.N.N.N.N.N.N.N.N.N.N.N.N.N.[Cl-].[Cl-].[Cl-].[Cl-].[Cl-].[Cl-].[O-2].[O-2].[Ru+3].[Ru+3].[Ru+4] [Ruthenium red]	0.6166	0.8198	0.9382	–
N#CC[C@@H](C1CCCC1)n1cc(-c2ncnc3[nH]ccc23)cn1 [S-Ruxolitinib (INCB018424)]	0.6167	0.8199	0.9411	–
CC[C@@H](C(=O)[C@@H](C)[C@@H](O)[C@H](C)[C@@H]1O[C@@H]([C@@H](CC)C(=O)[O-])CC[C@@H]1C)[C@H]1OC2(C=C[C@@H](O)[C@]3(CC[C@@](C)([C@H]4CC[C@](O)(CC)[C@H](C)O4)O3)O2)[C@H](C)C[C@@H]1C.[Na+] (stereo partly drawn) [SALINOMYCIN, SODIUM]	0.1472	0.2295	0.8421	–
NS(=O)(=O)c1ccc(-n2nc(C(F)(F)F)cc2-c2ccc(Cl)cc2)cc1 [SC-236, reference compound]	–	–	–	Offtarget: NO; Offtarget_sub: 0.2541
CO[C@H]1C[C@@H]2CC[C@@H](C)[C@@](O)(O2)C(=O)C(=O)N2CCCC[C@H]2C(=O)O[C@H]([C@H](C)C[C@@H]2CC[C@@H](O)[C@H](OC)C2)CC(=O)[C@H](C)/C=C(\C)[C@@H](O)[C@@H](OC)C(=O)[C@H](C)C[C@H](C)/C=C/C=C/C=C/1C [SIROLIMUS]	0.341	0.5452	0.8609	–
Oc1ccc(Nc2nc(-c3ccc(Cl)cc3)cs2)cc1 [SKI II]	0.4105	0.6287	0.8658	–
CC[C@H](C(=O)[C@H](C)[C@@H](O)[C@@H](C)[C@@H]1O[C@@H]([C@@H](CC)C(=O)O)CC[C@H]1C)[C@H]1O[C@]2(C=C[C@@H](O)[C@]3(CC[C@@](C)([C@H]4CC[C@](O)(CC)[C@H](C)O4)O3)O2)[C@H](C)C[C@H]1C [Salinomycin (Procoxacin)]	0.8013	0.892	0.9461	–
C=CC[C@@H]1/C=C(\C)C[C@H](C)C[C@H](OC)[C@H]2O[C@@](O)(C(=O)C(=O)N3CCCC[C@H]3C(=O)O[C@H](/C(C)=C/[C@@H]3CC[C@@H](O)[C@H](OC)C3)[C@H](C)[C@@H](O)CC1=O)[C@H](C)C[C@@H]2OC [TACROLIMUS]	0.727	0.8973	0.9661	–
O=C1NC(=O)/C(=C\c2cccc(C(F)(F)F)c2)S1 [TCS PIM-1 4a]	0.5379	0.7077	0.7912	–
O=C(O)Cc1cc(I)c(Oc2ccc(O)c(I)c2)c(I)c1 [TIRATRICOL]	0.6885	0.8174	0.855	–
